# According to the supplement of paper PMC13380429:
# Assays:
# Conditions in all cases: 72 h
# [1] = tested on: HepG2; assay: drug sensitivity score (DSS) for viability; higher = more toxic; extreme values may be limits of the assay
# [2] = tested on: Caco-2; assay: as above
# [3] = tested on: U2OS; assay: as above
# [4] = tested on: Calu-3; assay: as above
# [5] = tested on: Vero E6; assay: as above
# [6] = tested on: HepG2; assay: cell viability relative to DMSO; higher = less toxic
# [7] = tested on: Caco-2; assay: as above
# [8] = tested on: U2OS; assay: as above
# [9] = tested on: Calu-3; assay: as above
# [10] = tested on: Vero E6; assay: as above
# [11] = tested on: HepG2; assay: relative viability EC50 (midpoint between 100% and the lowest measured viability); higher = less toxic
# [12] = tested on: Caco-2; assay: as above
# [13] = tested on: U2OS; assay: as above
# [14] = tested on: Calu-3; assay: as above
# [15] = tested on: Vero E6; assay: as above
Structure (SMILES),drug sensitivity score [1],drug sensitivity score [2],drug sensitivity score [3],drug sensitivity score [4],drug sensitivity score [5],cell viability ([6]; 1 nM),cell viability ([6]; 10 nM),cell viability ([6]; 100 nM),cell viability ([6]; 1000 nM),cell viability ([6]; 10000 nM),cell viability ([7]; 1 nM),cell viability ([7]; 10 nM),cell viability ([7]; 100 nM),cell viability ([7]; 1000 nM),cell viability ([7]; 10000 nM),cell viability ([8]; 1 nM),cell viability ([8]; 10 nM),cell viability ([8]; 100 nM),cell viability ([8]; 1000 nM),cell viability ([8]; 10000 nM),cell viability ([9]; 1 nM),cell viability ([9]; 10 nM),cell viability ([9]; 100 nM),cell viability ([9]; 1000 nM),cell viability ([9]; 10000 nM),cell viability ([10]; 1 nM),cell viability ([10]; 10 nM),cell viability ([10]; 100 nM),cell viability ([10]; 1000 nM),cell viability ([10]; 10000 nM),relative viability EC50 [11],relative viability EC50 [12],relative viability EC50 [13],relative viability EC50 [14],relative viability EC50 [15]
CC(C)(C)/[N+]([O-])=C/c1ccc(S(=O)(=O)O)cc1S(=O)(=O)O [NXY-059],0,0,0,0,0,101%,94.4%,102%,100%,96.8%,98.5%,101%,96.5%,105%,97.5%,94.6%,100%,93.4%,98.7%,106%,91.3%,97%,98.4%,95%,95.8%,99.1%,105%,106%,105%,101%,> 10 µM,> 10 µM,> 10 µM,> 10 µM,> 10 µM
Cc1ccccc1CN1C(=O)C2=C(CCN(Cc3ccccc3)C2)N2CCN=C12 [ONC201],6.3,2.5,2.8,0.6,3.5,108%,93.7%,104%,91.6%,10.3%,108%,106%,93.4%,107%,44.1%,100%,102%,95.4%,106%,41.1%,103%,103%,102%,106%,75.7%,110%,101%,103%,102%,32.2%,2.39 µM,3.72 µM,3.64 µM,> 10 µM,3.35 µM
CN1CC[C@@H](c2c(O)cc(O)c3c(=O)cc(-c4ccccc4Cl)oc23)[C@@H]1CO [P276-00],16.7,9.4,11.5,8.5,10.1,114%,94.7%,101%,6.6%,7.6%,101%,108%,95.1%,57.6%,21.8%,97.6%,100%,90.3%,49.3%,3%,108%,103%,94.5%,59%,38.2%,103%,95.8%,102%,63.9%,6.1%,0.324 µM,0.881 µM,0.878 µM,0.604 µM,1.21 µM
O=C(/C=C/c1ccc2ccc(C(F)(F)F)cc2n1)c1ccncc1 [PFK-158],2.8,0,5.5,0,0.5,97.1%,84.6%,96.3%,102%,44.9%,95.9%,92.8%,102%,92.3%,88.2%,94.4%,100%,93.9%,101%,0%,92.1%,96.3%,90.5%,104%,89.9%,105%,86.7%,110%,92.1%,87.3%,3.37 µM,> 10 µM,3.22 µM,> 10 µM,> 10 µM
Nc1cc(C(F)(F)F)c(-c2nc(N3CCOCC3)nc(N3CCOCC3)n2)cn1 [PI3K-IN-2],9.1,9.1,5.9,12.4,7.8,124%,106%,101%,59.4%,25.1%,107%,106%,97.7%,63.3%,17.1%,103%,106%,99%,89.7%,24.5%,88.3%,102%,78.1%,48%,21.4%,106%,106%,105%,70%,30%,0.935 µM,1.12 µM,2.07 µM,0.376 µM,1.12 µM
C[C@@]1(F)[C@H](O)[C@@H](CO)O[C@H]1n1ccc(N)nc1=O [PSI-6130],0,0,0,0,0,103%,91.8%,106%,100%,107%,94.8%,96.8%,94.7%,103%,108%,95.5%,101%,96.9%,100%,107%,99.3%,99.6%,96%,100%,96.7%,101%,93.3%,100%,92.5%,106%,> 10 µM,> 10 µM,> 10 µM,> 10 µM,> 10 µM
C[C@@H](CN1CCC(Cc2ccccc2)CC1)[C@@H](O)c1ccc(O)cc1 [Ro-25-6981],0,0,0,0,0,93.9%,100%,102%,101%,102%,97.1%,92.3%,86.9%,94.4%,94.3%,99.1%,102%,96.5%,96.8%,100%,97.4%,98.2%,89.1%,95.8%,107%,103%,102%,103%,107%,99.8%,> 10 µM,> 10 µM,> 10 µM,> 10 µM,> 10 µM
CC(C)SC(=N)N [S-isopropylisothiourea],0,0,0,0.5,0,101%,109%,103%,94.5%,108%,99%,95%,96.7%,105%,91.9%,96.9%,98.2%,96.3%,103%,102%,100%,99.5%,102%,97.1%,84.8%,103%,99.2%,99.5%,89.9%,97.2%,> 10 µM,> 10 µM,> 10 µM,> 10 µM,> 10 µM
O=C(NNc1nc2cc(F)ccc2n2cccc12)c1cnccn1 [SC-144],15.3,20,12.5,18.1,12.6,96%,98.3%,101%,15.2%,20.2%,93.3%,101%,80.4%,6.6%,13.8%,104%,99.3%,91.8%,40.1%,15.9%,102%,95.9%,93.3%,6%,3.9%,97.1%,100%,82.7%,43.6%,21.9%,0.323 µM,0.17 µM,0.513 µM,0.27 µM,0.368 µM
N[C@@H](Cc1cc(-c2ccc(Cl)cc2Cl)cc(CP(=O)(O)O)c1O)C(=O)O [SDZ-220-040],0,0,0,0,0,97.4%,108%,99.2%,104%,89.1%,103%,99.5%,94.3%,94.3%,102%,105%,98.6%,103%,98.2%,100%,105%,104%,98.2%,108%,110%,98.7%,102%,106%,104%,100%,> 10 µM,> 10 µM,> 10 µM,> 10 µM,> 10 µM
Cc1cccc(/C=C/c2ccccc2)n1 [SIB-1893],0,0,0,0,0,108%,96.1%,107%,102%,94.2%,88.7%,101%,90.7%,100%,96.9%,99.8%,106%,96.3%,103%,97.4%,100%,102%,99.2%,98.1%,102%,94%,104%,102%,103%,100%,> 10 µM,> 10 µM,> 10 µM,> 10 µM,> 10 µM
N[C@@H](C(=O)O)[C@@H](OCc1ccccc1)C(=O)O.N[C@H](C(=O)O)[C@H](OCc1ccccc1)C(=O)O [TBOA-(DL)],0.3,0,0,0,0,100%,94.1%,91.5%,96.6%,82.5%,96.3%,94.6%,89.8%,90.2%,92.4%,99.5%,101%,97.2%,95%,99.2%,96.7%,87.8%,92.4%,98.4%,109%,104%,100%,101%,96.6%,98.8%,> 10 µM,> 10 µM,> 10 µM,> 10 µM,> 10 µM
COC1CCN(c2cccc(-c3cc(NC(C)=O)nc(-n4nc(C)cc4C)n3)n2)CC1 [TC-G-1004],5.5,4.8,0,0,0.1,84.7%,101%,75.3%,90.9%,44%,106%,89.3%,111%,96.9%,20.7%,105%,97.6%,104%,102%,95%,103%,94.9%,103%,91.8%,93.1%,103%,107%,101%,104%,86.7%,1.12 µM,2.88 µM,> 10 µM,> 10 µM,> 10 µM
CC(C)(C)NCC(O)c1cc(O)cc(O)c1 (stereo not given) [TERBUTALINE HEMISULFATE],0,0.6,0,0,0,109%,102%,106%,94.5%,92.3%,99%,104%,88.7%,91.8%,98.2%,102%,98.6%,105%,100%,106%,104%,106%,99.7%,95%,98.3%,105%,101%,101%,105%,98.9%,> 10 µM,> 10 µM,> 10 µM,> 10 µM,> 10 µM
